These results are taken from PMC3793924, “Targeting Androgen Receptor/Src Complex Impairs the Aggressive Phenotype of Human Fibrosarcoma Cells” (PLoS ONE, 2013).

Molecules are shown by their SMILES.

Test [1] has as its system HT1080 cells. In words: BrdU incorporation (DNA synthesis) in quiescent HT1080 cells. The class given is cell-based, human. The note with it: 18 h, R1881 and DHT 10 nM, EGF 100 ng/ml. As to the method:
Human fibrosarcoma HT1080 cells were used. In A, quiescent cells on coverslips were left un-stimulated or stimulated for 18 h with the indicated compounds. […] After in vivo pulse with BrdU (100 μM; Sigma), BrdU incorporation was analyzed by IF and expressed as % of total nuclei. Several independent experiments were performed in duplicate and the results were derived from at least 400 scored cells for each coverslip. Mean and SEM are shown. n represents the number of experiments. […] In B, xenografts were established in nude male mice as described in Methods. On alternate days, animals were intra-peritoneally injected with vehicle alone (vehicle), or the pure androgen antagonist Casodex (Cx: 0.1 μg/mice; 4µg/Kg body weight), or DHT (DHT: 0,1 μg/mice; 3 μg/Kg body weight) alone. Volumes of HT1080 cell xenografts were measured at the indicated times in two dimensions by a caliper and expressed as tumor mass (mm^3). Mean and SEM are shown. n represents the number of experiments.
Quiescent HT1080 cells were used. […] Casodex (at 10 μM) was used for comparison with the S1 peptide. Upper section in A, Western blot of HT1080 cell lysates with anti-EGFR antibody. […] In B, lysates were immune-precipitated with the anti-Src MAb and Src activity in immune complexes was assayed using acidified enolase, as a substrate. In C, cells on coverslips were left untreated or treated for 18 h with the indicated compounds. After in vivo pulse with BrdU (100 μM), BrdU incorporation was analyzed by IF and expressed as % of total nuclei. Several independent experiments were performed in duplicate and the results were obtained from at least 500 scored cells for each coverslip. Mean and SEM are shown. n represents the number of experiments.
For orientation: Uptake of a labelled nucleoside into DNA is a usual measure of proliferation.

A further test concerns HT1080 cell xenografts. In words: HT1080 cell xenografts in nude male mice, tumor mass. Type of test: in vivo. Conditions: i.p. on alternate days for 4 weeks, Casodex 0.1 μg/mice (4 µg/Kg), DHT 0,1 μg/mice (3 μg/Kg), six animals per group. As to the method: Figure 1 Casodex inhibits the EGF-triggered DNA synthesis in human fibrosarcoma HT1080 cells and reduces the growth of HT1080 xenografts. Human fibrosarcoma HT1080 cells were used. In A, quiescent cells on coverslips were left un-stimulated or stimulated for 18 h with the indicated compounds. […] After in vivo pulse with BrdU (100 μM; Sigma), BrdU incorporation was analyzed by IF and expressed as % of total nuclei. Several independent experiments were performed in duplicate and the results were derived from at least 400 scored cells for each coverslip. Mean and SEM are shown. n represents the number of experiments. (**) p value< 0,001. […] In B, xenografts were established in nude male mice as described in Methods. […] Volumes of HT1080 cell xenografts were measured at the indicated times in two dimensions by a caliper and expressed as tumor mass (mm^3). […]
HT1080 cells in 50% (v/v) Matrigel solution in phosphate-buffered saline (PBS; pH 7.4) were subcutaneously injected in the dorsal posterior region at 2.5 x 10^6 cells/male athymic mice (CD mice, Charles-River Italia) without hormone priming. […] The tumor volumes of HT1080 cell xenografts were measured at indicated intervals in two dimensions by a caliper and expressed as tumor mass (mm^3). This is calculated according to the formula: a^2 × b × 0.5, where a is the width and b is the length of the tumor. […]

Test [2] deals with HT1080 cells. Briefly: Trans-well migration/invasiveness of HT1080 cells. The class given is cell-based, human. The note with it: HT1080 cells, 10 nM R1881, 6 h, collagen pre-coated Trans-well filters.
The next test has as its system NIH3T3 cells. Briefly: BrdU incorporation in NIH3T3 fibroblasts. The class given is cell-based, mouse. The note with it: quiescent NIH3T3 cells, 18 h; EGF 100 ng/ml; R1881 10 nM. As to the method: NIH3T3 cells were used. In A, cells were transfected with 3416 or 3424 ARE-Luc constructs with or without hAR-expressing plasmid and then made quiescent as reported in Methods. Cells were left unstimulated or stimulated for 18 h with 10 nM R1881. Luciferase activity was assayed, normalized using beta-gal as an internal control, and expressed as fold induction. Three independent experiments were performed in triplicate. Means and SEM are shown; n represents the number of experiments. […] After in vivo labeling with BrdU (100 μM), BrdU incorporation was analyzed by IF and expressed as % of total cells. Several independent experiments were performed in duplicate and data derived from at least 700 scored cells for each coverslip. Mean and SEM are shown. n represents the number of experiments. […] Quiescent NIH3T3 fibroblasts were used. In C, cells on coverslips were left unstimulated or stimulated for 18 h with the indicated compounds. […] After in vivo pulse with BrdU (100 μM), BrdU incorporation was analyzed by IF and expressed as % of total cells. Several independent experiments were performed in duplicate and the results were derived from at least 500 scored cells for each coverslip. Mean and SEM are shown. n represents the number of experiments. […] The Western blot of MCF-7 cell lysate with the anti-tubulin or the anti-EGFR antibody is shown for comparison. In D, cells were left untreated or treated for 6 h with the indicated compounds. […] Cells were allowed to migrate in collagen pre-coated Trans-well filters. Migrated cells were stained and counted as reported in Methods. Results were derived from several independent experiments, each performed in duplicate. Data are expressed as relative increase. Mean and SEM are shown. n represents the number of experiments. […] (PPTX) Click here for additional data file.

For `C[C@]12CCC(=O)C[C@@H]1CC[C@@H]1[C@@H]2CC[C@]2(C)[C@@H](O)CC[C@@H]12` [DHT], the “BrdU incorporation (DNA synthesis) upon stimulation with the compound alone” value with HT1080 cells [1] is “unable to mediate DNA synthesis”. In addition, the “Growth of HT1080 xenografts (tumor mass)” value in the test with HT1080 cell xenografts is “slightly affected this increase”.

Consider `C[C@]1(O)CC[C@H]2[C@@H]3CCC4=CC(=O)CCC4=C3C=C[C@@]21C` [R1881], for which the “BrdU incorporation (DNA synthesis) upon stimulation with the compound alone” value in the test with HT1080 cells [1] is on record as “unable to mediate DNA synthesis”; in the test with NIH3T3 cells, “does not induce DNA synthesis”. Also, the “Cell motility upon androgen challenge (Trans-well)” value with HT1080 cells [2] is given as “robustly increases cell motility”.
